Measurements reported in PubChem BioAssay (NCI).
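Exposure lasted 48 hours, with cells grown in 96-well plates and compounds tested at five concentrations. TGI is the concentration that stops growth completely.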

Tests used:
Assay in all cases: NCI tumour cell line growth inhibition, 48 h
786-0 renal = system: 786-0 renal
A498 renal = system: A498 renal
A549 NSCLC = system: A549 NSCLC
ACHN renal = system: ACHN renal
CAKI-1 renal = system: CAKI-1 renal
CCRF-CEM leukemia = system: CCRF-CEM leukemia
COLO 205 colon = system: COLO 205 colon
DU-145 prostate = system: DU-145 prostate
EKVX NSCLC = system: EKVX NSCLC
HCC-2998 colon = system: HCC-2998 colon
HCT-116 colon = system: HCT-116 colon
HCT-15 colon = system: HCT-15 colon
HL-60(TB) leukemia = system: HL-60(TB) leukemia
HOP-62 NSCLC = system: HOP-62 NSCLC
HOP-92 NSCLC = system: HOP-92 NSCLC
HS 578T breast = system: HS 578T breast
HT29 colon = system: HT29 colon
IGROV1 ovarian = system: IGROV1 ovarian
K-562 leukemia = system: K-562 leukemia
LOX IMVI melanoma = system: LOX IMVI melanoma
M14 melanoma = system: M14 melanoma
MALME-3M melanoma = system: MALME-3M melanoma
MDA-MB-231 breast = system: MDA-MB-231 breast
MDA-MB-435 = system: MDA-MB-435
MDA-N = system: MDA-N
MOLT-4 leukemia = system: MOLT-4 leukemia
NCI-H226 lung = system: NCI-H226 lung
NCI-H23 lung = system: NCI-H23 lung
NCI-H460 lung = system: NCI-H460 lung
NCI-H522 lung = system: NCI-H522 lung
NCI/ADR-RES ovarian = system: NCI/ADR-RES ovarian
OVCAR-3 ovarian = system: OVCAR-3 ovarian
OVCAR-4 ovarian = system: OVCAR-4 ovarian
OVCAR-5 ovarian = system: OVCAR-5 ovarian
OVCAR-8 ovarian = system: OVCAR-8 ovarian
PC-3 prostate = system: PC-3 prostate
RPMI-8226 leukemia = system: RPMI-8226 leukemia
RXF 393 renal = system: RXF 393 renal
SF-268 CNS = system: SF-268 CNS
SF-295 CNS = system: SF-295 CNS
SF-539 CNS = system: SF-539 CNS
SK-MEL-2 melanoma = system: SK-MEL-2 melanoma
SK-MEL-28 melanoma = system: SK-MEL-28 melanoma
SK-MEL-5 melanoma = system: SK-MEL-5 melanoma
SK-OV-3 ovarian = system: SK-OV-3 ovarian
SN12C renal = system: SN12C renal
SNB-19 CNS = system: SNB-19 CNS
SNB-75 CNS = system: SNB-75 CNS
SR leukemia = system: SR leukemia
SW-620 colon = system: SW-620 colon
T-47D breast = system: T-47D breast
U251 CNS = system: U251 CNS
UACC-257 melanoma = system: UACC-257 melanoma
UACC-62 melanoma = system: UACC-62 melanoma
UO-31 renal = system: UO-31 renal
KM12 colon = system: KM12 colon
MCF7 breast = system: MCF7 breast
TK-10 renal = system: TK-10 renal

## Clc1ccc(-c2nnc(C34CC5CC(CC(C5)C3)C4)o2)cc1
786-0 renal
  TGI: > 100000 nM
A498 renal
  TGI: > 100 µM
A549 NSCLC
  TGI: > 100 µM
ACHN renal
  TGI: > 100000 nM
CAKI-1 renal
  TGI: > 100000 nM
CCRF-CEM leukemia
  TGI: > 100000 nM
COLO 205 colon
  TGI: > 100000 nM
DU-145 prostate
  TGI: > 100000 nM
EKVX NSCLC
  TGI: > 100 µM
HCC-2998 colon
  TGI: > 100000 nM
HCT-116 colon
  TGI: > 100000 nM
HCT-15 colon
  TGI: > 100000 nM
HL-60(TB) leukemia
  TGI: > 100000 nM
HOP-62 NSCLC
  TGI: > 100000 nM
HOP-92 NSCLC
  TGI: > 100000 nM
HS 578T breast
  TGI: > 100000 nM
HT29 colon
  TGI: > 100000 nM
IGROV1 ovarian
  TGI: > 100000 nM
K-562 leukemia
  TGI: > 100000 nM
LOX IMVI melanoma
  TGI: > 100000 nM
M14 melanoma
  TGI: > 100000 nM
MALME-3M melanoma
  TGI: > 100 µM
MDA-MB-231 breast
  TGI: > 100000 nM
MDA-MB-435
  TGI: > 100000 nM
MDA-N
  TGI: > 100000 nM
MOLT-4 leukemia
  TGI: > 100000 nM
NCI-H226 lung
  TGI: > 100000 nM
NCI-H23 lung
  TGI: > 100000 nM
NCI-H460 lung
  TGI: > 100000 nM
NCI-H522 lung
  TGI: > 100 µM
NCI/ADR-RES ovarian
  TGI: > 100 µM
OVCAR-3 ovarian
  TGI: > 100 µM
OVCAR-4 ovarian
  TGI: > 100000 nM
OVCAR-5 ovarian
  TGI: > 100 µM
OVCAR-8 ovarian
  TGI: > 100000 nM
PC-3 prostate
  TGI: > 100 µM
RPMI-8226 leukemia
  TGI: > 100000 nM
RXF 393 renal
  TGI: > 100000 nM
SF-268 CNS
  TGI: > 100 µM
SF-295 CNS
  TGI: > 100000 nM
SF-539 CNS
  TGI: > 100000 nM
SK-MEL-2 melanoma
  TGI: > 100000 nM
SK-MEL-28 melanoma
  TGI: > 100 µM
SK-MEL-5 melanoma
  TGI: > 100000 nM
SK-OV-3 ovarian
  TGI: > 100000 nM
SN12C renal
  TGI: > 100000 nM
SNB-19 CNS
  TGI: > 100000 nM
SNB-75 CNS
  TGI: > 100000 nM
SR leukemia
  TGI: > 100 µM
SW-620 colon
  TGI: > 100000 nM
T-47D breast
  TGI: > 100 µM
U251 CNS
  TGI: > 100 µM
UACC-257 melanoma
  TGI: > 100 µM
UACC-62 melanoma
  TGI: > 100000 nM
UO-31 renal
  TGI: 14.6 µM

## CC1CC(C)(O)CC(C(O)CC2CC(=O)NC(=O)C2)C1=O (configuration not stated)
786-0 renal
  TGI: 741 nM
A498 renal
  TGI: 3.51 µM
A549 NSCLC
  TGI: 7.19 µM
ACHN renal
  TGI: 1170 nM
CAKI-1 renal
  TGI: 91.6 nM
CCRF-CEM leukemia
  TGI: 1530 nM
COLO 205 colon
  TGI: 1010 nM
DU-145 prostate
  TGI: 1850 nM
EKVX NSCLC
  TGI: 3.45 µM
HCC-2998 colon
  TGI: 1590 nM
HCT-116 colon
  TGI: 704 nM
HCT-15 colon
  TGI: 2940 nM
HL-60(TB) leukemia
  TGI: 1100 nM
HOP-62 NSCLC
  TGI: 449 nM
HOP-92 NSCLC
  TGI: 625 nM
HS 578T breast
  TGI: 316 nM
HT29 colon
  TGI: 1610 nM
IGROV1 ovarian
  TGI: 1550 nM
K-562 leukemia
  TGI: 706 nM
KM12 colon
  TGI: 1410 nM
LOX IMVI melanoma
  TGI: 785 nM
M14 melanoma
  TGI: 551 nM
MALME-3M melanoma
  TGI: 6.44 µM
MCF7 breast
  TGI: 686 nM
MDA-MB-231 breast
  TGI: 65.1 nM
MDA-MB-435
  TGI: 2100 nM
MDA-N
  TGI: 1160 nM
MOLT-4 leukemia
  TGI: 229 nM
NCI-H226 lung
  TGI: 764 nM
NCI-H23 lung
  TGI: 1560 nM
NCI-H460 lung
  TGI: 1760 nM
NCI-H522 lung
  TGI: < 0.0476 µM
NCI/ADR-RES ovarian
  TGI: 5.87 µM
OVCAR-3 ovarian
  TGI: 3.43 µM
OVCAR-4 ovarian
  TGI: 870 nM
OVCAR-5 ovarian
  TGI: 9.21 µM
OVCAR-8 ovarian
  TGI: 2890 nM
PC-3 prostate
  TGI: 5.63 µM
RPMI-8226 leukemia
  TGI: 564 nM
RXF 393 renal
  TGI: 1050 nM
SF-268 CNS
  TGI: > 69.3 µM
SF-295 CNS
  TGI: 142 nM
SF-539 CNS
  TGI: 226 nM
SK-MEL-2 melanoma
  TGI: 2680 nM
SK-MEL-28 melanoma
  TGI: 3.55 µM
SK-MEL-5 melanoma
  TGI: 195 nM
SK-OV-3 ovarian
  TGI: 2450 nM
SN12C renal
  TGI: 640 nM
SNB-19 CNS
  TGI: 2240 nM
SNB-75 CNS
  TGI: 1270 nM
SW-620 colon
  TGI: 1530 nM
T-47D breast
  TGI: 3.18 µM
TK-10 renal
  TGI: 3.99 µM
U251 CNS
  TGI: 7.9 µM
UACC-257 melanoma
  TGI: > 100 µM
UACC-62 melanoma
  TGI: 620 nM
UO-31 renal
  TGI: 1.16 µM
